Reference: ChEMBL document CHEMBL1201862, “PubChem BioAssay data set” (2004)
Values joined by “and” are separate entries in the source; they are usually repeats but may differ in a detail not shown here. Equal entries are not always repeated.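 Briefly, cells in 96-well plates were exposed to five compound concentrations for 48 h, and endpoints were estimated by linear interpolation. GI50 = concentration required for 50% inhibition of growth.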 Active and inactive are the calls of the source. No stated cut-off is given here; in the data, active = GI50 up to about 1.1 µM and inactive = higher.

Tests used:
Assay in all cases: NCI anticancer screen, dose series, 48 h
786-0 = test system: 786-0
A498 = test system: A498
A549 = test system: A549
ACHN = test system: ACHN
CAKI-1 = test system: CAKI-1
COLO 205 = test system: COLO 205
DLD-1 = test system: DLD-1
DMS-114 = test system: DMS-114
DMS-273 = test system: DMS-273
EKVX = test system: EKVX
HCC 2998 = test system: HCC 2998
HCT-116 = test system: HCT-116
HCT-15 = test system: HCT-15
HL-60 = test system: HL-60
HOP-18 = test system: HOP-18
HOP-62 = test system: HOP-62
HOP-92 = test system: HOP-92
HT-29 = test system: HT-29
IGROV-1 = test system: IGROV-1
KM-20L2 = test system: KM-20L2
KM12 = test system: KM12
LXFL 529 = test system: LXFL 529
M14 = test system: M14
M19-MEL = test system: M19-MEL
MOLT-4 = test system: MOLT-4
Malme-3M = test system: Malme-3M
NCI-H226 = test system: NCI-H226
NCI-H23 = test system: NCI-H23
NCI-H460 = test system: NCI-H460
NCI-H522 = test system: NCI-H522
OVCAR-3 = test system: OVCAR-3
OVCAR-4 = test system: OVCAR-4
OVCAR-5 = test system: OVCAR-5
OVCAR-8 = test system: OVCAR-8
RXF 393 = test system: RXF 393
SF-268 = test system: SF-268
SF-295 = test system: SF-295
SF-539 = test system: SF-539
SK-MEL-28 = test system: SK-MEL-28
SK-MEL-2 = test system: SK-MEL-2
SK-MEL-5 = test system: SK-MEL-5
SK-OV-3 = test system: SK-OV-3
SN12C = test system: SN12C
SNB-19 = test system: SNB-19
SNB-75 = test system: SNB-75
SNB-78 = test system: SNB-78
SW-620 = test system: SW-620
TK-10 = test system: TK-10
U-251 = test system: U-251
UACC-257 = test system: UACC-257
UACC-62 = test system: UACC-62
UO-31 = test system: UO-31
CCRF-CEM = test system: CCRF-CEM
DU-145 = test system: DU-145
Hs-578T = test system: Hs-578T
K562 = test system: K562
MCF7 = test system: MCF7
NCI/ADR-RES = test system: NCI/ADR-RES
PC-3 = test system: PC-3
RPMI-8226 = test system: RPMI-8226
SR = test system: SR
LOX IMVI = test system: LOX IMVI

Measured: GI50

CC1=C(C(=O)Nc2ccccc2)C(c2ccccc2)C(C(=O)Nc2ccccc2)=C(C)N1
inactive: 786-0 76.4 µM | A498 86.1 µM | A549 35.2 µM | ACHN 17.6 µM | CAKI-1 4.74 µM | COLO 205 38.4 µM | DLD-1 52.7 µM | DMS-114 19.2 µM | DMS-273 47.4 µM | EKVX 76.4 µM | HCC 2998 31 µM | HCT-116 26.5 µM | HL-60 16.3 µM | HOP-18 > 100 µM | HOP-62 > 100 µM | HOP-92 29.3 µM | HT-29 32.2 µM | IGROV-1 75.9 µM | KM-20L2 25.2 µM | KM12 17.3 µM | LXFL 529 22.1 µM | M14 31.5 µM | M19-MEL 28.9 µM | MOLT-4 18.7 µM | Malme-3M > 100 µM | NCI-H226 > 100 µM | NCI-H23 43.1 µM | NCI-H460 45.8 µM | NCI-H522 16.3 µM | OVCAR-3 40.4 µM | OVCAR-4 60.7 µM | OVCAR-5 > 100 µM | OVCAR-8 75 µM | RXF 393 26.5 µM | SF-268 42.5 µM | SF-295 38.5 µM | SF-539 > 100 µM | SK-MEL-28 55.8 µM | SK-MEL-2 32.1 µM | SK-MEL-5 36.9 µM | SK-OV-3 > 100 µM | SN12C > 100 µM | SNB-19 94.4 µM | SNB-75 37.3 µM | SNB-78 > 100 µM | SW-620 47.5 µM | TK-10 91 µM | U-251 48.1 µM | UACC-257 36.1 µM | UACC-62 15.4 µM | UO-31 71.6 µM
23.4 µM: HCT-15

Cc1ccc(C)c(NC(=O)CC2Sc3ccccc3NC2=O)c1 (stereo unspecified)
inactive: 786-0 18.3 µM and 25.2 µM | CCRF-CEM > 56.2 µM and > 86.3 µM | COLO 205 > 100 µM | DMS-114 49.5 µM and 30.3 µM | DU-145 > 100 µM and > 74.1 µM | EKVX 75.7 µM and > 70.5 µM | HL-60 > 96.4 µM and > 56.2 µM | HOP-18 25.1 µM and 16.7 µM | HOP-62 20.7 µM and 17.6 µM | HOP-92 19.1 µM and 11.9 µM | Hs-578T 22.6 µM | IGROV-1 20.8 µM and 35.7 µM | K562 > 56.2 µM and 68.5 µM | KM-20L2 > 100 µM and > 96.8 µM | M14 51.3 µM | MCF7 > 95.5 µM and 62.4 µM | MOLT-4 > 56.2 µM and > 77.3 µM | NCI/ADR-RES > 49 µM | OVCAR-8 15.5 µM and 18.6 µM | PC-3 > 89.7 µM and 79.3 µM | RPMI-8226 > 100 µM and 53 µM | SF-268 14.7 µM and 26.2 µM | SF-295 27.9 µM and 50.1 µM | SF-539 33.7 µM and 29.4 µM | SK-MEL-2 30.1 µM and 50.8 µM | SK-OV-3 21.2 µM and 22.7 µM | SNB-19 19.8 µM and 32.7 µM | SNB-75 10.7 µM and 10.4 µM | SNB-78 14.5 µM and 23.1 µM | SR > 46.5 µM and 27.8 µM | U-251 15 µM and 27 µM | UACC-257 34.2 µM and > 67 µM | UACC-62 68.9 µM and > 85.5 µM
38.7 µM and 61 µM: HCT-15

COc1cc(CNc2cnc3ccc(N)cc3n2)cc(OC)c1OC
inactive: 786-0 > 100 µM | A498 > 100 µM | A549 > 100 µM | ACHN > 100 µM | CAKI-1 > 100 µM | CCRF-CEM > 100 µM | COLO 205 > 100 µM | DMS-114 > 100 µM | DMS-273 99.8 µM | EKVX > 100 µM | HCC 2998 72.4 µM | HCT-116 > 100 µM | HL-60 36.3 µM | HOP-18 > 100 µM | HOP-62 > 100 µM | HOP-92 > 100 µM | HT-29 > 100 µM | IGROV-1 > 100 µM | K562 36.3 µM | KM-20L2 > 100 µM | KM12 > 100 µM | LOX IMVI > 100 µM | LXFL 529 > 100 µM | M14 > 100 µM | M19-MEL 66.8 µM | MOLT-4 > 100 µM | Malme-3M > 100 µM | NCI-H226 > 100 µM | NCI-H23 > 100 µM | NCI-H460 > 100 µM | NCI-H522 > 100 µM | OVCAR-3 > 100 µM | OVCAR-4 > 100 µM | OVCAR-5 > 100 µM | OVCAR-8 > 100 µM | RPMI-8226 91.4 µM | RXF 393 > 100 µM | SF-268 > 100 µM | SF-295 > 100 µM | SF-539 > 100 µM | SK-MEL-28 > 100 µM | SK-MEL-2 > 100 µM | SK-MEL-5 71.3 µM | SK-OV-3 > 100 µM | SN12C > 100 µM | SNB-19 > 100 µM | SNB-75 > 100 µM | SNB-78 > 100 µM | SW-620 45.1 µM | TK-10 > 100 µM | U-251 > 100 µM | UACC-257 > 100 µM | UACC-62 > 100 µM | UO-31 > 100 µM
> 100 µM: HCT-15
